Source: ChEMBL document CHEMBL6109152, “Harnessing the SPOP E3 Ubiquitin Ligase via a Bridged Proteolysis Targeting Chimera (PROTAC) Strategy for Targeted Protein Degradation” (J Med Chem, 2025)
Calls of active or inactive are those of the source. The rule behind the calls is not given here.

How the values were obtained:
[1] = molecular target: T1, Speckle-type POZ protein-Bromodomain-containing protein 4 (Homo sapiens, UniProt O60885+O43791); experiment: PROTAC activity at SPOP/BRD4-L in human HT-29 cells assessed as induction of BRD4 long isoform degradation by measuring fold change at 0.156 uM incubated for 24 hrs by Western blotting analysis (reference value: 1.00); format: cell-based
HT-29 [2] = experiment: Effect on BRD3 mRNA level in human HT-29 cells at 1 to 10 uM incubated for 24 hrs by RT-qPCR analysis; format: functional, cell-based; settings: dose 1-10 µM
[3] = molecular target: T2, Bromodomain-containing protein 4 (Homo sapiens, UniProt O60885); experiment: Inhibition of BRD4 in human HT-29 cells assessed as decrease in c-MYC protein level by measuring fold change at 0.313 uM incubated for 24 hrs by Western blot analysis (reference value: 1.00); format: cell-based
[4] = molecular target: T2, Bromodomain-containing protein 4; experiment: Inhibition of BRD4 in human HT-29 cells assessed as decrease in c-MYC protein level by measuring fold change at 5 uM incubated for 24 hrs by Western blot analysis (reference value: 1.00); format: cell-based
[5] = molecular target: T1, Speckle-type POZ protein-Bromodomain-containing protein 4; experiment: PROTAC activity at SPOP/BRD4-L in human HT-29 cells assessed as induction of BRD4 long isoform degradation at 0.5 to 5 uM incubated for 24 hrs by Western blotting analysis; format: cell-based; settings: dose 0.5-5 µM
[6] = molecular target: T1, Speckle-type POZ protein-Bromodomain-containing protein 4; experiment: PROTAC activity at SPOP/BRD4-S in human HT-29 cells assessed as induction of BRD4 short isoform degradation by measuring fold change at 0.625 uM incubated for 24 hrs by Western blotting analysis (reference value: 1.00); format: cell-based
[7] = molecular target: T3, Speckle-type POZ protein-Bromodomain-containing protein 2 (Homo sapiens) (UniProt P25440+O43791); experiment: PROTAC activity at SPOP/BRD2 in human HT-29 cells assessed as induction of BRD2 degradation at 5 uM measured after >=48 hrs by Western blot analysis; format: cell-based
[8] = molecular target: T1, Speckle-type POZ protein-Bromodomain-containing protein 4; experiment: PROTAC activity at SPOP/BRD4-S in human HT-29 cells assessed as induction of BRD4 short isoform degradation at 5 uM incubated for 24 hrs by Western blotting analysis relative to control; format: cell-based
HT-29 [9] = experiment: Effect on BRD2 mRNA level in human HT-29 cells at 1 to 10 uM incubated for 24 hrs by RT-qPCR analysis; format: functional, cell-based; settings: dose 1-10 µM
[10] = molecular target: T3, Speckle-type POZ protein-Bromodomain-containing protein 2 (Homo sapiens); experiment: PROTAC activity at SPOP/BRD2 in human HT-29 cells assessed as induction of BRD2 degradation by measuring fold change at 1.25 uM incubated for 24 hrs by Western blot analysis (reference value: 1.00); format: cell-based
[11] = molecular target: T1, Speckle-type POZ protein-Bromodomain-containing protein 4; experiment: PROTAC activity at SPOP/BRD4-L in human HT-29 cells assessed as induction of BRD4 long isoform degradation by measuring fold change at 10 uM incubated for 24 hrs by Western blotting analysis (reference value: 1.00); format: cell-based
[12] = molecular target: T2, Bromodomain-containing protein 4; experiment: Inhibition of BRD4 in human HT-29 cells assessed as decrease in c-MYC protein level by measuring fold change at 2.5 uM incubated for 24 hrs by Western blot analysis (reference value: 1.00); format: cell-based
HEK293T = experiment: Binding affinity to BRD4-L/GLP/SPOP in HEK293T cells assessed as compound-BRD4-GLP-SPOP quaternary complex formation at 20 to 100 uM incubated for 1 hrs by pulldown based Western blot analysis; format: cell-based; settings: Homo sapiens, dose 20-100 µM
[13] = molecular target: T1, Speckle-type POZ protein-Bromodomain-containing protein 4; experiment: PROTAC activity at SPOP/BRD4-L in human HT-29 cells assessed as induction of BRD4 long isoform degradation at 5 uM measured after >=48 hrs by Western blotting analysis; format: cell-based
[14] = molecular target: T1, Speckle-type POZ protein-Bromodomain-containing protein 4; experiment: PROTAC activity at SPOP/BRD4-S in human HT-29 cells assessed as induction of BRD4 short isoform degradation at 5 uM preincubated with MS1262 for 2 hrs followed by compound addition and measured after 24 hrs by Western blot analysis; format: cell-based
[15] = molecular target: T4, Speckle-type POZ protein-Bromodomain-containing protein 3 (Homo sapiens) (UniProt Q15059+O43791); experiment: PROTAC activity at SPOP/BRD3 in human HT-29 cells assessed as induction of BRD3 degradation by measuring fold change at 1.25 uM incubated for 24 hrs by Western blot analysis (reference value: 1.00); format: cell-based
[16] = molecular target: T1, Speckle-type POZ protein-Bromodomain-containing protein 4; experiment: PROTAC activity at SPOP/BRD4-S in human HT-29 cells assessed as induction of BRD4 short isoform degradation by measuring fold change at 0.156 uM incubated for 24 hrs by Western blotting analysis (reference value: 1.00); format: cell-based
[17] = molecular target: T1, Speckle-type POZ protein-Bromodomain-containing protein 4; experiment: PROTAC activity at SPOP/BRD4-S in human HT-29 cells assessed as induction of BRD4 short isoform degradation incubated for 24 hrs by Western blotting analysis; format: cell-based
[18] = molecular target: T1, Speckle-type POZ protein-Bromodomain-containing protein 4; experiment: PROTAC activity at SPOP/BRD4-L in human HT-29 cells assessed as induction of BRD4 long isoform degradation by measuring fold change at 0.313 uM incubated for 24 hrs by Western blotting analysis (reference value: 1.00); format: cell-based
[19] = molecular target: T3, Speckle-type POZ protein-Bromodomain-containing protein 2 (Homo sapiens); experiment: PROTAC activity at SPOP/BRD2 in human HT-29 cells assessed as induction of BRD2 degradation by measuring fold change at 2.5 uM incubated for 24 hrs by Western blot analysis (reference value: 1.00); format: cell-based
[20] = molecular target: T1, Speckle-type POZ protein-Bromodomain-containing protein 4; experiment: PROTAC activity at SPOP/BRD4-S in human MDA-MB-231 cells assessed as induction of BRD4 short isoform degradation at 0.1 to 5 uM incubated for 24 hrs by Western blotting analysis; format: cell-based; settings: dose 0.1-5 µM
HT-29 [21] = experiment: Effect on BRD4 short isoform mRNA level in human HT-29 cells at 1 to 10 uM incubated for 24 hrs by RT-qPCR analysis; format: functional, cell-based; settings: dose 1-10 µM
[22] = molecular target: T1, Speckle-type POZ protein-Bromodomain-containing protein 4; experiment: PROTAC activity at SPOP/BRD4-S in human HT-29 cells assessed as induction of BRD4 short isoform degradation by measuring fold change at 10 uM incubated for 24 hrs by Western blotting analysis (reference value: 1.00); format: cell-based
[23] = molecular target: T2, Bromodomain-containing protein 4; experiment: Inhibition of BRD4 in human HT-29 cells assessed as decrease in c-MYC protein level by measuring fold change at 1.25 uM incubated for 24 hrs by Western blot analysis (reference value: 1.00); format: cell-based
[24] = molecular target: T2, Bromodomain-containing protein 4; experiment: Inhibition of BRD4 in human HT-29 cells assessed as decrease in c-MYC protein level at 5 uM measured after 16 hrs by Western blot analysis relative to control; format: cell-based
HT-29 [25] = experiment: Downregulation of c-MYC mRNA level in human HT-29 cells at 5 to 10 uM incubated for 24 hrs by RT-qPCR analysis; format: functional, cell-based; settings: dose 5-10 µM
[26] = molecular target: T4, Speckle-type POZ protein-Bromodomain-containing protein 3 (Homo sapiens); experiment: PROTAC activity at SPOP/BRD3 in human HT-29 cells assessed as induction of BRD3 degradation at 5 uM measured after >=48 hrs by Western blot analysis; format: cell-based
[27] = molecular target: T4, Speckle-type POZ protein-Bromodomain-containing protein 3 (Homo sapiens); experiment: PROTAC activity at SPOP/BRD3 in human HT-29 cells assessed as induction of BRD3 degradation by measuring fold change at 10 uM incubated for 24 hrs by Western blot analysis (reference value: 1.00); format: cell-based
[28] = molecular target: T4, Speckle-type POZ protein-Bromodomain-containing protein 3 (Homo sapiens); experiment: PROTAC activity at SPOP/BRD3 in human HT-29 cells assessed as induction of BRD3 degradation by measuring fold change at 0.313 uM incubated for 24 hrs by Western blot analysis (reference value: 1.00); format: cell-based

T4 sequence (O43791 whole entry, looked up, canonical isoform): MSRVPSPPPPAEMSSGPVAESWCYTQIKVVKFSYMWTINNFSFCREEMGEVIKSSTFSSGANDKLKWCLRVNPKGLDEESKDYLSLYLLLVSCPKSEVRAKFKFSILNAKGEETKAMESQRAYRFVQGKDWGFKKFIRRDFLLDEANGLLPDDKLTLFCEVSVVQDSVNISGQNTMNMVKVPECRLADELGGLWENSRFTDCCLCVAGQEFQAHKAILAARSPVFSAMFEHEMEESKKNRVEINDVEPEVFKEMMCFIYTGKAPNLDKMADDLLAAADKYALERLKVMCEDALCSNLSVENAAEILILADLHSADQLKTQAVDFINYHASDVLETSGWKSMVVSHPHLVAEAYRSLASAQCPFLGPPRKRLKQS
T4 sequence (Q15059 whole entry, looked up, canonical isoform): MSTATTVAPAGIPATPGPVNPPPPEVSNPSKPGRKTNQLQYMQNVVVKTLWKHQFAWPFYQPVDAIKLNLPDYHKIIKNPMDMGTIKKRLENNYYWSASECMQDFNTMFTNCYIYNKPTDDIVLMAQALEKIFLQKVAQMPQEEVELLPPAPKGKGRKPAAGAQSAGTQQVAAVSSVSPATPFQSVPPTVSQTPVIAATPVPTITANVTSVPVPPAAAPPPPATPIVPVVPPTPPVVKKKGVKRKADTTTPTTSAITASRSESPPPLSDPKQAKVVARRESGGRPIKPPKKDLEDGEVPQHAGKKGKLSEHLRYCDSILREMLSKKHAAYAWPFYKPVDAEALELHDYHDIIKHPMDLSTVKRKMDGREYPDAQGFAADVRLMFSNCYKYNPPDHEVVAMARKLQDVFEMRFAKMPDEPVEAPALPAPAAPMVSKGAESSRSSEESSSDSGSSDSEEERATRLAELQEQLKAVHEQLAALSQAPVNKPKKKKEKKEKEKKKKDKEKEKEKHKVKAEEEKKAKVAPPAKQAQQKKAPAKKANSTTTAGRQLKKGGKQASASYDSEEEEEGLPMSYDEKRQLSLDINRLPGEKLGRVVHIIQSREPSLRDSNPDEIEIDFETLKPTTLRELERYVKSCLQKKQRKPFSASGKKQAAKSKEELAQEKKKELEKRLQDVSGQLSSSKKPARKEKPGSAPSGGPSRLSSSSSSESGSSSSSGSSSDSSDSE
T3 sequence (O43791 whole entry, looked up, canonical isoform): as the sequence (O43791 whole entry, looked up, canonical isoform) above
T3 sequence (P25440 whole entry, looked up, canonical isoform): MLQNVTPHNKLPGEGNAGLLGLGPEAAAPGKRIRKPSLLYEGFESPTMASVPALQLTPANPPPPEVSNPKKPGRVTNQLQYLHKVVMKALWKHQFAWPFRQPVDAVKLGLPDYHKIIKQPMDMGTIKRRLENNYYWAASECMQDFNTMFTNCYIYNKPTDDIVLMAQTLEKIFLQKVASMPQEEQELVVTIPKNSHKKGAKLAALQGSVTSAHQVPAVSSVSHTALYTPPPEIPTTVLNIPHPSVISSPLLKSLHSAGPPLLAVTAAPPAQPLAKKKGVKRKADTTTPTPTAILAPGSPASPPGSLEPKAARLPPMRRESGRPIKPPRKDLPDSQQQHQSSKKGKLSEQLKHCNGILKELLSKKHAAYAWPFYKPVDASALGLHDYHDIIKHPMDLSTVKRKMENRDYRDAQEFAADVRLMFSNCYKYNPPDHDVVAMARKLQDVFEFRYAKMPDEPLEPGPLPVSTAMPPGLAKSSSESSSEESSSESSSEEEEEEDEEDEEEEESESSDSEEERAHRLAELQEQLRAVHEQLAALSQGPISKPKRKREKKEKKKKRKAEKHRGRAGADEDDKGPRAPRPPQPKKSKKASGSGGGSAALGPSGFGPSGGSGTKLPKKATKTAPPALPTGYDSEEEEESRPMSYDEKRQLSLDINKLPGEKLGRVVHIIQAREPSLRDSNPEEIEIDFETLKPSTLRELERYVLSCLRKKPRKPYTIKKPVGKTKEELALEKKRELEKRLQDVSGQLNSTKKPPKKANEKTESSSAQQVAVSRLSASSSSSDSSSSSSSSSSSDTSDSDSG
T1 sequence (O43791 whole entry, looked up, other chains not shown, canonical isoform): as the sequence (O43791 whole entry, looked up, canonical isoform) above

Compound: COc1cc2c(NC3CCN(CCCC(=O)NCCCCCCCCCCNC(=O)C[C@@H]4N=C(c5ccc(Cl)cc5)c5c(sc(C)c5C)-n5c(C)nnc54)CC3)cc(N3CCOCC3)nc2cc1OCCCN1CCCC1
- fold change (FC) [1]: 1.2
- Activity (HT-29 [2]): inactive
- fold change (FC) [3]: 1
- fold change (FC) [4]: 0.03
- Activity [5]: inactive
- fold change (FC) [6]: 0.9
- Activity [7]: Active
- Activity [8]: > 50%
- Activity (HT-29 [9]): inactive
- fold change (FC) [10]: 1.1
- fold change (FC) [11]: 0.6
- fold change (FC) [12]: 0.1
- Activity (HEK293T): Active
- Activity [13]: Active
- Activity [14]: inactive
- fold change (FC) [15]: 0.7
- fold change (FC) [16]: 1
- Activity [17]: Dose-dependent-effect
- DC50 [17]: 6.2 µM
- fold change (FC) [18]: 1.3
- fold change (FC) [19]: 1
- Activity [20]: Active
- Activity (HT-29 [21]): inactive
- fold change (FC) [22]: 0.3
- fold change (FC) [23]: 0.4
- inhibition [24]: 100%
- Activity (HT-29 [25]): Active
- Activity [26]: Active
- fold change (FC) [27]: 0.5
- fold change (FC) [28]: 0.9
